Data from US20250064886A1, “CARDIOVASCULAR AND CEREBROVASCULAR DRUG AND USE THEREOF” (HANGZHOU ADAMERCK PHARMLABS INC., priority 2021, published 2025).
“And” between values parts separate entries of the source, which are not always exact repeats. Identical values can stand only once.

Assays:
[1] = system: tryptase; test: Sensitization risk: tryptase expression (OD, BAPNA) in zebrafish (Example 2); format: in vivo
Protocol: Experimental method: 2 dpf wild type AB strain zebrafish were randomly selected and placed in a 24-well plate, with each group 6 parallel wells and 10 zebrafish per well. The zebrafish were injected intravenously with samples at a dose of 500 ng/tail and the positive control “C48/80” at a concentration of 1.5 μg/mL, while normal control group was set up. Each well has a capacity of 1 mL.
All experimental groups were given BAPNA by dissolving it in the water. After treatment at 28° C. for 1 day, the liquid was transferred to 96-well plates with 200 μL/well, and the relative absorbance values (OD values) of the expression levels of tryptase in each experimental group were detected using an microplate reader, and the results of the statistical analysis of the OD values were used to evaluate the risk of sensitization by sample. Statistical results were expressed as mean±SE.
Statistical analysis was performed using SPSS software, and p<0.05 indicates significant differences.

[2] = system: rats; test: Bleeding time in rats, tail clipping (Example 4); format: in vivo, rat
Protocol: Grouping: Divided into 5 groups, with 10 animals in each group. […] The modeling started 30 min after the last dose. Detection index: the blood flow was open after 15 min, the thread was taken out, the residual liquid was sucked dry, the thread attached with thrombus was weighed and the wet weight of thrombus was calculated; the dry weight of thrombus was weighed and calculated after bake-drying in the oven at 50° C. Thrombosis inhibition rate was calculated. Tails were clipped at the end of the experiment to detect bleeding time.

[3] = system: cerebral ischemic injury in rats caused by autologous thrombus and thrombin; test: Ischemic brain injury in rats caused by autologous thrombus and thrombin (Example 6); format: in vivo, rat
Protocol: The drug was administered once by slow tail vein injection (1 ml per minute) 2 h after modeling, and the decrease in blood flow was monitored after the injection of thrombin, and 120 min after the administration of the drug. Neurobehavioral scoring was performed to determine the neurological function of rats after 24 h. The cerebral infarction rate and cerebral water content of rats were determined using 2,3,5-triphenyltetrazolium chloride (TTC) staining method, and the pathological damage of the brain of rats administered with drug 2 h after cerebral ischemia was observed by hematoxylin-eosin (HE) staining.

[4] = system: GPX4 mRNA; test: GPX4 mRNA expression (real time PCR) in Erastin-induced neuronal cells (Example 8); format: cell-based, rat; settings: Erastin 50 μM
Protocol: Experimental method: Primary neuron cells were incubated in a medium containing Erastin (final concentration of 50 μM) for 24 hours, and then incubated in a medium containing different concentrations of the test drug and Erastin (final concentration of 50 μM) for another 24 hours. After incubation, Real time PCR was used to detect mRNA expression of GPX4 in each group of cells, CCK8 assay was used to detect cell viability in each group of cells, C11-BODIPY probe method was used to detect intracellular lipid ROS levels in each group of cells, and PGSK probe method was used to detect iron content in cells.
The experimental data were expressed in means±SD, and statistical differences between groups were determined using one-way ANOVA and Tukey's test, with p-values less than 0.05 considered significant.
After incubation, real time PCR was used to detect the mRNA expression of GPX4 in each group of cells. The results were presented as Mean±SD. Compared with the control group, ***p<0.0001; Compared with the model group, #p<0.05, […].

With CC(=O)N[C@H](CSCC1OC2OC3C(CSC[C@@H](NC(C)=O)C(=O)[O-])OC(OC4C(CSC[C@@H](NC(C)=O)C(=O)[O-])OC(OC5C(CSC[C@@H](NC(C)=O)C(=O)[O-])OC(OC6C(CSC[C@@H](NC(C)=O)C(=O)[O-])OC(OC7C(CSC[C@@H](NC(C)=O)C(=O)[O-])OC(OC8C(CSC[C@@H](NC(C)=O)C(=O)[O-])OC(OC9C(CSC[C@@H](NC(C)=O)C(=O)[O-])OC(OC1C(O)C2O)C(O)C9O)C(O)C8O)C(O)C7O)C(O)C6O)C(O)C5O)C(O)C4O)C(O)C3O)C(=O)[O-].[Na+].[Na+].[Na+].[Na+].[Na+].[Na+].[Na+].[Na+] (stereo partly drawn) [Compound (1)] the “Sensitization risk, in words” value ([1]; 500 ng/tail) was “no or substantially no sensitization risk”, the “Relative sensitization risk (compared with positive control group)” value ([1]; 500 ng/tail intravenous) was 13% and the “Sensitization risk (%)” value ([1]; 500 ng/tail intravenous) was 11.1%. For the same compound, the “Absorbance value (OD value), parallel wells 1-6” value ([1]; 500 ng/tail intravenous, 28° C. 1 day, single wells) was 0.05725 and 0.05895 and 0.06195 and 0.06575 and 0.05845 and 0.05605, the “Absorbance value (OD value), mean” value ([1]; 500 ng/tail intravenous, mean of 6 wells) was 0.060 and the “Bleeding time” value ([2]; 10 mg/kg i.v., x ± s, n = 10) was 403.4 ± 185.1 s. The “Bleeding time” value ([2]; 20 mg/kg i.v.) was 422.6 ± 205.7 s, the “Bleeding time” value ([2]; 40 mg/kg i.v.) was 428.4 ± 185.6 s and the “Effect on the bleeding time in rats, in words” value ([2]; intravenous, compared with model control group) was “no significant effect”. The “Cerebral blood flow: Percentage decrease after injection of thrombin (%)” value ([3]; 22.5 mg/kg group, value before administration, mean ± SD, n = 10) was 43.67 ± 7.17%, the “Cerebral infarction rate (%)” value ([3]; 22.5 mg/kg i.v.) was 13.91 ± 10.78 % and the “Cerebral water content (%)” value ([3]; 22.5 mg/kg i.v.) was 79.93 ± 1.98 %. The “Cerebral blood flow: Percentage decrease two hours after administration (%)” value ([3]; 22.5 mg/kg i.v. once 2 h after modeling) was 27.14 ± 6.38 %, the Pathological damage score ([3]; 22.5 mg/kg i.v., HE staining, mean ± SD, n = 10) was 1.90 ± 1.10 and the Behavioral score ([3]; 22.5 mg/kg i.v., after 24 h) was 1.60 ± 0.70. For the same compound, the “Expression of GPX4 mRNA” value ([4]; 1 μM, control about 1.00, Mean±SD) was 0.4845 ± 0.06^, the “Expression of GPX4 mRNA” value ([4]; 2.5 μM) was 0.5759 ± 0.07^ and the “Expression of GPX4 mRNA” value ([4]; 5 μM) was 0.6469 ± 0.08^#. The “Expression of GPX4 mRNA” value ([4]; 10 μM) was 0.7093 ± 0.15^##, the “Expression of GPX4 mRNA” value ([4]; 20 μM) was 0.7664 ± 0.08^## and the “Expression of GPX4 mRNA” value ([4]; 40 μM) was 0.8503 ± 0.06^##.
